These results are taken from ChEMBL document CHEMBL1201862, “PubChem BioAssay data set” (2004).

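Each compound was tested at five concentrations against cells in 96-well plates for 48 hours. Here, GI50 denotes the concentration required for 50% inhibition of growth.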 Active and inactive are the calls of the source. No stated cut-off is given here; in the data, active = GI50 up to about 1.1 µM and inactive = higher.

Common to all, as to assay: growth of human tumour cells (NCI), 48 h
Assay [1] relates to K562.
For assay [2], the system named is SW-620.
Assay [3] has as its system RXF 393.
Assay [4] relates to ACHN.
The subject of assay [5] is HL-60.
Assay [6] concerns OVCAR-5.
The subject of assay [7] is HCC 2998.
Assay [8] relates to DMS-114.
For assay [9], the system named is OVCAR-8.
The test system of assay [10] is A498.
Assay [11] has as its system CAKI-1.
In assay [12] the test system is UACC-62.
The test system of assay [13] is SN12C.
The subject of assay [14] is SNB-75.
The test system of assay [15] is NCI-H23.
The subject of assay [16] is UACC-257.
The test system of assay [17] is OVCAR-4.
The subject of assay [18] is HT-29.
In assay [19] the test system is SR.
The subject of assay [20] is MDA-N.

As to `COc1ccc(/C=C2\CN(C)Cc3c2nc(N)nc3-c2ccc(OC)cc2)cc1`, the GI50 in assay [1] was 70.5 µM (inactive); in assay [2], 57.4 µM (inactive); in assay [3], > 100 µM (inactive); in [4], > 100 µM (inactive); in [5], 28.7 µM (inactive); in assay [6], > 100 µM (inactive). Further, the GI50 is 16.6 µM (inactive) in assay [7]; 65.3 µM (inactive) in assay [8]; 49.3 µM (inactive) in [9]; > 100 µM (inactive) in [10]; > 100 µM (inactive) in [11]; 87.1 µM (inactive) in assay [12]. Further, the GI50 in assay [13], in [14] and in assay [15] was > 100 µM (inactive) throughout.

`NC1N=Nc2ccccc21` (centres undefined): the GI50 in [1], in assay [2], in assay [3], in assay [4], in [5] and in assay [6] was > 100 µM (inactive) throughout. For the same compound, the GI50 in assay [16], in assay [17], in assay [7], in assay [8], in [9] and in assay [11] was > 100 µM (inactive) throughout. The GI50 in [18], in [13], in assay [19], in assay [14] and in [15] was > 100 µM (inactive) each time.

In the case of `CCCCCCCCCCCCCC(=S)N/C=C/OC`, the GI50 in assay [2] is 35.5 µM (inactive); in [3], 26.9 µM (inactive); in assay [4], 27.5 µM (inactive); in assay [5] it was 16.1 µM (inactive); in assay [6], > 100 µM (inactive); in assay [16], 24.5 µM (inactive). In addition, the GI50 in assay [17] was 32.1 µM (inactive); in [7], 19 µM (inactive); in assay [8] it was 21.7 µM (inactive); in [9], 38 µM (inactive); in assay [10], 23.2 µM (inactive); in [18], 21.3 µM (inactive). Further, the GI50 in [12] was 20.7 µM (inactive); in assay [13], 34.9 µM (inactive); in assay [14], 33.7 µM (inactive); in assay [15], 28.2 µM (inactive).

Consider `COC1OC(C)C(OC(=O)C(C)(C)C)C(OS(=O)(=O)c2ccc(C)cc2)C1OS(=O)(=O)c1ccc(C)cc1` (centres undefined), for which the GI50 in assay [1], in [2], in assay [3], in [4], in [5] and in [6] was > 100 µM (inactive) in each case. Also, the GI50 in assay [16] is > 100 µM (inactive); in [17], > 100 µM (inactive); in assay [7], > 100 µM (inactive); in [8], > 100 µM (inactive); in assay [9] it was > 100 µM (inactive); in [11], 5.9 µM (inactive). For the same compound, the GI50 was > 100 µM (inactive) in assay [18]; > 100 µM (inactive) in assay [13]; 15.4 µM (inactive) in assay [19]; 77.8 µM (inactive) in assay [14]; > 100 µM (inactive) in [15].

Take `COc1ccc(/C=C/c2cc(OC)c(O[Si](C)(C)C(C)(C)C)c(OC)c2)cc1`: the GI50 is 41.9 µM (inactive) in [1]; > 100 µM (inactive) in assay [2]; > 100 µM (inactive) in [4]; 64.9 µM (inactive) in [6]; 28.4 µM (inactive) in assay [16]; 49.9 µM (inactive) in assay [17]. For the same compound, the GI50 was > 100 µM (inactive) in assay [7]; 14 µM (inactive) in assay [8]; > 100 µM (inactive) in [9]; > 100 µM (inactive) in [10]; > 100 µM (inactive) in [11]; > 100 µM (inactive) in assay [18]. The GI50 in assay [12] was 75.2 µM (inactive); in assay [13] it was > 100 µM (inactive); in [19] it was > 10 µM (inactive); in assay [14], 84.7 µM (inactive); in assay [15], 17.2 µM (inactive).

As to `NC(=O)N1N=C2c3ccccc3CC[C@@H]2C1c1ccccc1` (some centres undefined), the GI50 in [1] is 61.4 µM (inactive); in [2], > 100 µM (inactive); in assay [3] it was > 100 µM (inactive); in assay [4], > 100 µM (inactive); in assay [5], 42.9 µM (inactive); in [6], > 100 µM (inactive). Moreover, the GI50 is > 100 µM (inactive) in assay [16]; > 100 µM (inactive) in assay [7]; 77.1 µM (inactive) in [8]; > 100 µM (inactive) in assay [9]; > 100 µM (inactive) in assay [10]; > 100 µM (inactive) in assay [11]. Also, the GI50 in assay [18] was > 100 µM (inactive); in assay [12] it was > 100 µM (inactive); in assay [13], > 100 µM (inactive); in assay [14] it was 36.6 µM (inactive); in assay [15] it was > 100 µM (inactive).

Take `CC(=O)N/N=C1\CC(C)(C)C2CCC1C2` (centres undefined): the GI50 in [1], in assay [2], in assay [3], in assay [4], in assay [5] and in [6] was > 100 µM (inactive) throughout. Moreover, the GI50 in assay [16], in assay [17], in assay [8], in assay [9], in [10] and in assay [11] was > 100 µM (inactive) throughout. For the same compound, the GI50 in [12], in [13], in assay [14] and in [15] was > 100 µM (inactive) each time.

Take `COc1ccc(C2Oc3ccc(O)cc3[C@@H]2C)cc1OC` (some centres undefined): the GI50 in assay [1] is > 100 µM (inactive); in assay [2] it was > 100 µM (inactive); in assay [3] it was 58.5 µM (inactive); in assay [4], > 100 µM (inactive); in [5], 34.3 µM (inactive); in [6], > 100 µM (inactive). For the same compound, the GI50 in assay [16] was > 100 µM (inactive); in assay [17], 97.7 µM (inactive); in assay [7] it was > 100 µM (inactive); in assay [8] it was 59.8 µM (inactive); in assay [9] it was > 100 µM (inactive); in assay [11] it was 18.9 µM (inactive). The GI50 is > 100 µM (inactive) in assay [18], > 100 µM (inactive) in assay [12], 30.2 µM (inactive) in assay [14] and 94.6 µM (inactive) in assay [15].

In the case of `COc1ccc2c(c1)CC[C@@H]1[C@@H]2CC[C@]2(C)/C(=N/OCCN3CCCC3)CC[C@@H]12`, the GI50 was 0.76 µM (active) in assay [1]; 1.95 µM (inactive) in assay [2]; 1.92 µM (inactive) in assay [3]; 4.45 µM (inactive) in [4]; 1.21 µM (inactive) in assay [5]; 2.79 µM (inactive) in assay [6]. The GI50 is 1.75 µM (inactive) in [16]; 12 µM (inactive) in assay [17]; 1.85 µM (inactive) in assay [7]; 3.81 µM (inactive) in assay [9]; 3.8 µM (inactive) in [10]; 1.75 µM (inactive) in assay [11]. Further, the GI50 was 0.766 µM (active) in assay [18]; 1.82 µM (inactive) in assay [12]; 6.52 µM (inactive) in assay [13]; 1.97 µM (inactive) in assay [19]; 3 µM (inactive) in [14]; 5.94 µM (inactive) in [15]. In [20], the GI50 was 1.98 µM (inactive).

On to `CCOP(=O)(OCC)/C(=C\n1ccc(=O)[nH]c1=S)C(=O)OC`, for which the GI50 in assay [1], in assay [2], in assay [3], in assay [4], in [5] and in assay [6] was > 100 µM (inactive) each time. Moreover, the GI50 in assay [16], in assay [17], in [7], in assay [9], in assay [10] and in assay [11] was > 100 µM (inactive) in each case. Moreover, the GI50 in assay [18], in assay [12], in assay [13], in assay [19], in assay [14] and in assay [15] was > 100 µM (inactive) in each case. For the same compound, the GI50 in assay [20] was > 100 µM (inactive).

Turning to `CC(C)Oc1c(-c2c(OC(C)C)c(=O)c2=O)c(=O)c1=O`, the GI50 was > 31.8 µM (inactive) in assay [1]; > 34.9 µM (inactive) in assay [2]; > 56.6 µM (inactive) in assay [3]; > 70.6 µM (inactive) in assay [4]; 24.7 µM (inactive) in assay [5]; > 100 µM (inactive) in assay [6]. Also, the GI50 in assay [16] was > 56.4 µM (inactive); in [17] it was > 49.7 µM (inactive); in [7], > 55.3 µM (inactive); in assay [9], > 34.7 µM (inactive); in [10], > 100 µM (inactive); in assay [11], > 100 µM (inactive). In addition, the GI50 in [18] is > 23.1 µM (inactive); in assay [12] it was > 40 µM (inactive); in assay [13], > 49.2 µM (inactive); in assay [19], > 100 µM (inactive); in [14] it was 48 µM (inactive); in assay [15] it was > 52.8 µM (inactive). Besides, the GI50 in [20] is > 29 µM (inactive).

On to `COC1(C)CC2N(C(=O)c3ccccc3)N=C(c3ccccc3)CC2(C)O1` (centres undefined), for which the GI50 in assay [1] was 88.9 µM (inactive); in assay [2], > 100 µM (inactive); in assay [4], > 100 µM (inactive); in [5], > 100 µM (inactive); in [6], > 100 µM (inactive); in assay [16] it was > 100 µM (inactive). The GI50 in assay [17] was > 100 µM (inactive); in assay [7] it was 96.4 µM (inactive); in [8], > 100 µM (inactive); in assay [9], > 100 µM (inactive); in assay [10] it was > 100 µM (inactive); in assay [11], > 100 µM (inactive). Also, the GI50 in [18] was > 100 µM (inactive); in [12] it was 43.3 µM (inactive); in [13], > 100 µM (inactive); in assay [14] it was > 100 µM (inactive).
